Data as given in PubChem BioAssay (NCI).
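1) Cells in 96-well plates. 2) Compound, 48 h, 5 concentrations. 3) Linear interpolation between surrounding doses. 4) Unreached endpoint = highest concentration. TGI: concentration producing complete growth inhibition.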

Legend:
Experiment in all cases: NCI-60 cell line screen, 48 h
786-0 renal = system: 786-0 renal
COLO 205 colon = system: COLO 205 colon
HCT-116 colon = system: HCT-116 colon
HCT-15 colon = system: HCT-15 colon
HOP-92 NSCLC = system: HOP-92 NSCLC
HT29 colon = system: HT29 colon
PC-3 prostate = system: PC-3 prostate
SK-MEL-2 melanoma = system: SK-MEL-2 melanoma
SK-MEL-28 melanoma = system: SK-MEL-28 melanoma
SK-MEL-5 melanoma = system: SK-MEL-5 melanoma

## CC(C)(NC1=NCCO1)c1ccccc1
786-0 renal
  TGI: > 100 µM
COLO 205 colon
  TGI: > 100 µM
HCT-116 colon
  TGI: > 100 µM
HCT-15 colon
  TGI: > 100 µM
HOP-92 NSCLC
  TGI: > 100 µM
HT29 colon
  TGI: > 100 µM
PC-3 prostate
  TGI: > 100 µM
SK-MEL-2 melanoma
  TGI: > 100 µM
SK-MEL-28 melanoma
  TGI: > 100 µM
SK-MEL-5 melanoma
  TGI: > 100 µM

## CC(C)C(C/C=C1\CC(CO)(COC(=O)CC(C(C)C)C(C)C)OC1=O)C(C)C (centres undefined)
786-0 renal
  TGI: 21.1 µM
COLO 205 colon
  TGI: 9.75 µM
HCT-116 colon
  TGI: 27.8 µM
HCT-15 colon
  TGI: 34.9 µM
HOP-92 NSCLC
  TGI: 16.6 µM
HT29 colon
  TGI: 32.6 µM
PC-3 prostate
  TGI: 24.6 µM
SK-MEL-2 melanoma
  TGI: 38.2 µM
SK-MEL-28 melanoma
  TGI: 29.3 µM
SK-MEL-5 melanoma
  TGI: 23 µM

## CC1CCC2(CC1)N=C1CCC(C)CC1C1(CCC(C)CC1)N2 (centres undefined)
786-0 renal
  TGI: > 100 µM
COLO 205 colon
  TGI: > 100 µM
HCT-116 colon
  TGI: > 100 µM
HCT-15 colon
  TGI: > 100 µM
HOP-92 NSCLC
  TGI: > 100 µM
HT29 colon
  TGI: > 100 µM
PC-3 prostate
  TGI: > 100 µM
SK-MEL-2 melanoma
  TGI: > 100 µM
SK-MEL-28 melanoma
  TGI: > 100 µM
SK-MEL-5 melanoma
  TGI: > 100 µM

## O=[N+]([O-])c1ccc(Cl)cc1C=NC12CC3CC(CC(C3)C1)C2
786-0 renal
  TGI: > 95.2 µM
COLO 205 colon
  TGI: 97.5 µM
HCT-116 colon
  TGI: 62.9 µM
HCT-15 colon
  TGI: > 100 µM
HOP-92 NSCLC
  TGI: > 100 µM
HT29 colon
  TGI: > 79.9 µM
PC-3 prostate
  TGI: > 100 µM
SK-MEL-2 melanoma
  TGI: > 100 µM
SK-MEL-28 melanoma
  TGI: > 100 µM
SK-MEL-5 melanoma
  TGI: > 100 µM

## C/C(N=Nc1nc2ccccc2o1)=C1/C=CC=CN1O
786-0 renal
  TGI: > 100 µM
COLO 205 colon
  TGI: > 100 µM
HCT-116 colon
  TGI: > 100 µM
HCT-15 colon
  TGI: > 100 µM
HOP-92 NSCLC
  TGI: 39.7 µM
HT29 colon
  TGI: > 100 µM
PC-3 prostate
  TGI: > 100 µM
SK-MEL-2 melanoma
  TGI: > 100 µM
SK-MEL-28 melanoma
  TGI: > 100 µM
SK-MEL-5 melanoma
  TGI: > 100 µM

## O=C1C(N=Nc2ccc(-c3nc4ccccc4[nH]3)cc2)NC(=S)N1c1ccccc1 (centres undefined)
786-0 renal
  TGI: 39 µM
COLO 205 colon
  TGI: > 100 µM
HCT-116 colon
  TGI: > 100 µM
HCT-15 colon
  TGI: 43.8 µM
HOP-92 NSCLC
  TGI: > 100 µM
HT29 colon
  TGI: > 100 µM
PC-3 prostate
  TGI: > 100 µM
SK-MEL-2 melanoma
  TGI: > 100 µM
SK-MEL-28 melanoma
  TGI: > 100 µM
SK-MEL-5 melanoma
  TGI: > 100 µM

## OCCO[P+]1(OCCO)n2c3ccc2C(c2ccccc2)=C2C=CC(=N2)C(c2ccccc2)=c2ccc(n21)=C(c1ccccc1)C1=NC(=C3c2ccccc2)C=C1
786-0 renal
  TGI: 1.28 µM
COLO 205 colon
  TGI: 0.0651 µM
HCT-116 colon
  TGI: 0.203 µM
HCT-15 colon
  TGI: 3.59 µM
HOP-92 NSCLC
  TGI: 0.399 µM
HT29 colon
  TGI: 3.36 µM
PC-3 prostate
  TGI: 1.59 µM
SK-MEL-2 melanoma
  TGI: 0.0438 µM
SK-MEL-28 melanoma
  TGI: 0.466 µM
SK-MEL-5 melanoma
  TGI: 0.164 µM

## NCCCCNC1(c2cc3ccccc3s2)CCCCC1
786-0 renal
  TGI: 3.95 µM
COLO 205 colon
  TGI: 3.5 µM
HCT-116 colon
  TGI: 14.9 µM
HCT-15 colon
  TGI: 17.7 µM
HOP-92 NSCLC
  TGI: 20.8 µM
HT29 colon
  TGI: 9.7 µM
PC-3 prostate
  TGI: 17.3 µM
SK-MEL-2 melanoma
  TGI: 3.58 µM
SK-MEL-28 melanoma
  TGI: 3.81 µM
SK-MEL-5 melanoma
  TGI: 3.63 µM

## CCOc1cc(C2SCC(=O)N2c2nc3cc4sc(N5C(=O)CSC5c5ccc(O)c(OCC)c5)nc4cc3s2)ccc1O (centres undefined)
786-0 renal
  TGI: > 100 µM
COLO 205 colon
  TGI: > 100 µM
HCT-116 colon
  TGI: > 100 µM
HCT-15 colon
  TGI: > 100 µM
HOP-92 NSCLC
  TGI: > 88.6 µM
HT29 colon
  TGI: > 100 µM
PC-3 prostate
  TGI: > 100 µM
SK-MEL-2 melanoma
  TGI: > 100 µM
SK-MEL-28 melanoma
  TGI: > 100 µM
SK-MEL-5 melanoma
  TGI: > 100 µM

## CCOC(=O)C(C)c1nc2cc(N3CCN(C)CC3)c(F)cc2[nH]c1=O (centres undefined)
786-0 renal
  TGI: > 100 µM
COLO 205 colon
  TGI: > 100 µM
HCT-116 colon
  TGI: > 100 µM
HCT-15 colon
  TGI: > 100 µM
HOP-92 NSCLC
  TGI: > 100 µM
HT29 colon
  TGI: > 100 µM
PC-3 prostate
  TGI: > 100 µM
SK-MEL-2 melanoma
  TGI: > 100 µM
SK-MEL-28 melanoma
  TGI: > 100 µM
SK-MEL-5 melanoma
  TGI: > 100 µM

## Nc1c(S(=O)(=O)O)cc(Nc2cccc(S(=O)(=O)/C=C/S(=O)(=O)O)c2)c2c1C(=O)c1ccccc1C2=O
786-0 renal
  TGI: > 100 µM
COLO 205 colon
  TGI: > 100 µM
HCT-116 colon
  TGI: > 100 µM
HCT-15 colon
  TGI: > 100 µM
HOP-92 NSCLC
  TGI: > 100 µM
HT29 colon
  TGI: > 100 µM
PC-3 prostate
  TGI: > 100 µM
SK-MEL-2 melanoma
  TGI: > 100 µM
SK-MEL-28 melanoma
  TGI: > 100 µM
SK-MEL-5 melanoma
  TGI: > 100 µM

## OCC(O)C(O)C(O)C(/C=N\Nc1ncnc2ccc(Br)cc12)=N/Nc1ncnc2ccc(Br)cc12 (centres undefined)
786-0 renal
  TGI: > 100 µM
COLO 205 colon
  TGI: > 100 µM
HCT-116 colon
  TGI: > 100 µM
HOP-92 NSCLC
  TGI: > 100 µM
HT29 colon
  TGI: > 100 µM
PC-3 prostate
  TGI: > 100 µM
SK-MEL-2 melanoma
  TGI: > 100 µM
SK-MEL-28 melanoma
  TGI: > 100 µM
SK-MEL-5 melanoma
  TGI: 18 µM

## CC(C)(C)OC(=O)NCC(=O)N1CCCN(C(=O)CNC(=O)OC(C)(C)C)CC1
786-0 renal
  TGI: > 100 µM
COLO 205 colon
  TGI: > 100 µM
HCT-116 colon
  TGI: > 100 µM
HCT-15 colon
  TGI: > 100 µM
HOP-92 NSCLC
  TGI: > 100 µM
HT29 colon
  TGI: > 100 µM
PC-3 prostate
  TGI: > 100 µM
SK-MEL-2 melanoma
  TGI: > 100 µM
SK-MEL-28 melanoma
  TGI: > 100 µM
SK-MEL-5 melanoma
  TGI: > 100 µM

## Cc1c(F)c(N)c2c(=O)cc(-c3ccc(NC(=O)C(N)CCCN=C(N)N)c(F)c3)oc2c1F (centres undefined)
786-0 renal
  TGI: > 100 µM
COLO 205 colon
  TGI: > 100 µM
HCT-116 colon
  TGI: > 100 µM
HCT-15 colon
  TGI: > 100 µM
HOP-92 NSCLC
  TGI: > 100 µM
HT29 colon
  TGI: > 100 µM
PC-3 prostate
  TGI: > 76.6 µM
SK-MEL-2 melanoma
  TGI: 60 µM
SK-MEL-28 melanoma
  TGI: 63.6 µM
SK-MEL-5 melanoma
  TGI: 76.8 µM

## O=C(NN1C(=O)C=CC1=O)c1ccccc1Nc1ccccc1C(=O)NN1C(=O)C=CC1=O
786-0 renal
  TGI: > 100 µM
COLO 205 colon
  TGI: > 100 µM
HCT-116 colon
  TGI: > 100 µM
HCT-15 colon
  TGI: > 100 µM
HOP-92 NSCLC
  TGI: > 100 µM
HT29 colon
  TGI: > 100 µM
PC-3 prostate
  TGI: > 100 µM
SK-MEL-2 melanoma
  TGI: > 100 µM
SK-MEL-28 melanoma
  TGI: > 100 µM
SK-MEL-5 melanoma
  TGI: > 100 µM

## Cc1cccc2c1C/C(=C\c1cccc(C)c1C(=O)O)C2=O
786-0 renal
  TGI: > 100 µM
COLO 205 colon
  TGI: > 100 µM
HCT-116 colon
  TGI: > 100 µM
HCT-15 colon
  TGI: > 100 µM
HOP-92 NSCLC
  TGI: > 100 µM
HT29 colon
  TGI: > 100 µM
PC-3 prostate
  TGI: > 100 µM
SK-MEL-2 melanoma
  TGI: > 100 µM
SK-MEL-28 melanoma
  TGI: > 100 µM
SK-MEL-5 melanoma
  TGI: > 100 µM

## COc1cc(C(SCc2ccccc2)SCc2ccccc2)ccc1O
786-0 renal
  TGI: > 10 µM
COLO 205 colon
  TGI: > 10 µM
HCT-116 colon
  TGI: > 10 µM
HCT-15 colon
  TGI: > 10 µM
HOP-92 NSCLC
  TGI: > 10 µM
HT29 colon
  TGI: > 10 µM
PC-3 prostate
  TGI: > 10 µM
SK-MEL-2 melanoma
  TGI: > 10 µM
SK-MEL-28 melanoma
  TGI: > 10 µM
SK-MEL-5 melanoma
  TGI: > 10 µM

## O=C(O)/C=C/C(=O)O
786-0 renal
  TGI: > 100 µM
COLO 205 colon
  TGI: > 100 µM
HCT-116 colon
  TGI: > 100 µM
HCT-15 colon
  TGI: > 100 µM
HOP-92 NSCLC
  TGI: > 100 µM
HT29 colon
  TGI: > 100 µM
PC-3 prostate
  TGI: > 100 µM
SK-MEL-2 melanoma
  TGI: > 100 µM
SK-MEL-28 melanoma
  TGI: > 100 µM
SK-MEL-5 melanoma
  TGI: > 100 µM

## CN(C)CCOC1(CC2CCCCC2)CCC(C(C)(C)C)CC1 (centres undefined)
786-0 renal
  TGI: 5.91 µM
COLO 205 colon
  TGI: 6.13 µM
HCT-116 colon
  TGI: 14.7 µM
HCT-15 colon
  TGI: 13.4 µM
HOP-92 NSCLC
  TGI: 17.5 µM
HT29 colon
  TGI: 7.02 µM
PC-3 prostate
  TGI: 13.2 µM
SK-MEL-2 melanoma
  TGI: 13.7 µM
SK-MEL-28 melanoma
  TGI: 12.3 µM
SK-MEL-5 melanoma
  TGI: 4.8 µM
